# Assay results: article PMC7660916, “The Salmonella enterica serovar Typhimurium virulence factor STM3169 is a hexuronic acid binding protein component of a TRAP transporter” (Microbiology, 2020)
# Molecular target: STM3169 (Salmonella enterica, UniProt Q8ZM02)
# Assay: intrinsic fluorescence titration; supported by MST (KD […]) and thermal shift
# Type: binding
# Chain of STM3169 (Q8ZM02 entry or part of it): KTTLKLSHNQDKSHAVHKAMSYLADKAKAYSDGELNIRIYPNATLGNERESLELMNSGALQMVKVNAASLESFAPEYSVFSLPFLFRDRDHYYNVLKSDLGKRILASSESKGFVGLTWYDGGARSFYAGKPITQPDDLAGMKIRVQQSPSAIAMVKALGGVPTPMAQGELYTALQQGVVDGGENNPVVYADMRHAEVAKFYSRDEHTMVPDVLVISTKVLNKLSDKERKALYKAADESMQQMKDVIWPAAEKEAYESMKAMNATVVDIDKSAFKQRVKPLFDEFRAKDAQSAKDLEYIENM
smiles,measurement,value
O=C(O)[C@H]1OC(O)[C@H](O)[C@@H](O)[C@@H]1O (stereo partly drawn) [D-glucuronate],Kd,170 ± 77 nM
